How the values were obtained:
RON = RON (Homo sapiens, UniProt Q04912); assay: Inhibitory activity against RON, TR-FRET kinase assay; format: biochemical; conditions: TR-FRET enzyme assay
Protocol: In order to measure the inhibitory activity of each of the compounds of Examples against RON, the IC50 of each of the compounds was measured using Time-resolved fluorescence energy transfer (TR-FRET).
(§1) Specifically, the compound was prepared to a concentration of 1 mM in 100% DMSO and was diluted 10 times in a stepwise manner through 3-fold dilution. The compound (2 ul) diluted in a stepwise manner was added to a 96-well-plate containing 48 ul of a 1× kinase reaction buffer (50 mM HEPES (pH 7.4), 0.01% Tween-20, 5 mM DTT, 0.5 mM Na3VO4, 2 mM EGTA, 10 mM MgCl2).
The RON protein was diluted to a concentration of 49.3 nM in a RON storage buffer (50 mM Tris-HCl (pH 7.5), 150 mM NaCl, 0.5 mM EDTA, 0.02% Triton X-100), and then diluted again to a concentration of 0.4 nM in a 1×kinase reaction buffer. As a substrate cocktail, a RON-specific substrate mixed solution (40 uM ULight-labeled Poly GT, 100 nM ATP) was prepared at a concentration 2 times the final reaction concentration.
(§2) Thereafter, a 384-well-plate was prepared, and 2.5 μl of each of the diluted compounds of Examples was added to a corresponding well of experimental group wells, and 2.5 μl of a 4% DMSO solution was dispensed into high control wells and low control wells.
(§3) Thereafter, 2.5 μL of 0.4 nM RON was dispensed into each of the high control wells and the experimental group wells, and 2.5 μL of the 1× kinase reaction buffer was added to the low control wells, and all the wells were centrifuged at room temperature for 40 seconds at 1,000 RPM, and then incubated at room temperature for 20-30 minutes. Then, 5 μL of the substrate cocktail (2×) was dispensed into each well, and all the wells were centrifuged at room temperature for 40 seconds at 1,000 RPM, and then incubated at room temperature for 60 minutes. Thereafter, 5 μL of 30 mM EDTA was added to each well to terminate the reaction, and all the wells were then incubated again at room temperature for 5 minutes. Thereafter, 5 μL of a 4×phosphotyrosine antibody (Perkin Elmer) containing europium was added to each well, and all the wells were then incubated at room temperature for 60 minutes. After the incubation, the 384-well-plate was read with the Vison plate reader. In this case, the excitation wavelength was 340 nm, and the emission wavelength was 620 nm and 665 nm. The IC50 value of each compound of Examples was derived using the GraphPd Prism7 program.

cMET = cMET (Homo sapiens, UniProt P08581); assay: Inhibitory activity against MET (cMET), TR-FRET kinase assay; format: biochemical; conditions: TR-FRET enzyme assay
cMET, sequence (P08581 25-1390): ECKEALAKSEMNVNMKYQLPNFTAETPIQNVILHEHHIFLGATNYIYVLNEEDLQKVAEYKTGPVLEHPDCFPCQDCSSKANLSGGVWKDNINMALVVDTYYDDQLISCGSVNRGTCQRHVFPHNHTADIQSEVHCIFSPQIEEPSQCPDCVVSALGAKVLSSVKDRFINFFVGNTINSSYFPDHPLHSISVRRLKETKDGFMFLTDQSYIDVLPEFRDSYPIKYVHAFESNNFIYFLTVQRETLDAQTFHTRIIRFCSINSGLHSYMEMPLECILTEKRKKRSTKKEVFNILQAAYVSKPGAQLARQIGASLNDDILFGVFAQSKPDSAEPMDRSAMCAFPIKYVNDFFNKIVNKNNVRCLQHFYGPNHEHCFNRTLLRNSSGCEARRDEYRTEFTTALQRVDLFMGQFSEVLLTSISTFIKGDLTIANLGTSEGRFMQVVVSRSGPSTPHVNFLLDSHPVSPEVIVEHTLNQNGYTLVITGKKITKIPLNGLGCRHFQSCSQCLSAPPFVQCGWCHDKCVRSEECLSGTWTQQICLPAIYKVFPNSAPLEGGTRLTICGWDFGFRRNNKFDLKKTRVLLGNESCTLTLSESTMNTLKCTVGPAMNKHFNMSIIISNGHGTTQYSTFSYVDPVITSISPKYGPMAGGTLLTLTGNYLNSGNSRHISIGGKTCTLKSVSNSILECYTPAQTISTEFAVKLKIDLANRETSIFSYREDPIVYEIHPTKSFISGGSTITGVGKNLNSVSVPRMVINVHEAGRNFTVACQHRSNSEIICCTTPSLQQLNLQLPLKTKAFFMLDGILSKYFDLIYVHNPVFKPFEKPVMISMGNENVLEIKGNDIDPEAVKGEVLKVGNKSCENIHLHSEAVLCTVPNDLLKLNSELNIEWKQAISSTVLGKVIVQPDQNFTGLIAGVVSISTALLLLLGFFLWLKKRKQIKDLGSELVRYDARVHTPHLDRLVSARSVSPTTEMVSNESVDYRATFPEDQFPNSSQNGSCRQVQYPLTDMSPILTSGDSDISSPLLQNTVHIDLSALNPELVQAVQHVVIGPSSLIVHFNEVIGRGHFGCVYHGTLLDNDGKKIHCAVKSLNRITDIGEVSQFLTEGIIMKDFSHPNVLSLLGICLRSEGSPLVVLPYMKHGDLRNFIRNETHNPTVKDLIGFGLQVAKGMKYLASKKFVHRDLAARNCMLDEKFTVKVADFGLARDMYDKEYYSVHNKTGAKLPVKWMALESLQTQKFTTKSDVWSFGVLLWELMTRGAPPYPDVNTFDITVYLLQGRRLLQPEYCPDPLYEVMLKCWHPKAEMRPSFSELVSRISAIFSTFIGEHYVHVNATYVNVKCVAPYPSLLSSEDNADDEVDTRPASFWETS
Protocol: In addition, in order to measure the enzyme activity inhibition for cMET, the evaluation was performed in the same manner as the enzyme activity inhibition measurement experiment for RON.
as §1, with “a 1×kinase” for “a 1× kinase”, “7.4), 0.05% BSA, 0.005%” for “7.4), 0.01%”, “Tween-20, 1” for “Tween-20, 5”, “mM MnCl2, 20” for “mM Na3VO4, 2 mM EGTA, 10”
The cMET protein was diluted to a concentration of 263 nM in a cMET storage buffer (50 mM Tris-HCl (pH 7.5), 150 mM NaCl, 0.05% Brij35, 1 mM DTT, 10% Glycerol), and then diluted again to a concentration of 2 nM in a 1×kinase reaction buffer. As a substrate cocktail, a MET-specific substrate mixed solution (5 uM TK peptide, 10 mM ATP) was prepared at a concentration 2 times the final reaction concentration.
as §2
as §3, with “of 2” for “of 0.4”, “nM cMET” for “nM RON”, “of 90” for “of 30”, “The […]” for “The IC50”

RON, sequence (Q04912 25-1400, species assumed): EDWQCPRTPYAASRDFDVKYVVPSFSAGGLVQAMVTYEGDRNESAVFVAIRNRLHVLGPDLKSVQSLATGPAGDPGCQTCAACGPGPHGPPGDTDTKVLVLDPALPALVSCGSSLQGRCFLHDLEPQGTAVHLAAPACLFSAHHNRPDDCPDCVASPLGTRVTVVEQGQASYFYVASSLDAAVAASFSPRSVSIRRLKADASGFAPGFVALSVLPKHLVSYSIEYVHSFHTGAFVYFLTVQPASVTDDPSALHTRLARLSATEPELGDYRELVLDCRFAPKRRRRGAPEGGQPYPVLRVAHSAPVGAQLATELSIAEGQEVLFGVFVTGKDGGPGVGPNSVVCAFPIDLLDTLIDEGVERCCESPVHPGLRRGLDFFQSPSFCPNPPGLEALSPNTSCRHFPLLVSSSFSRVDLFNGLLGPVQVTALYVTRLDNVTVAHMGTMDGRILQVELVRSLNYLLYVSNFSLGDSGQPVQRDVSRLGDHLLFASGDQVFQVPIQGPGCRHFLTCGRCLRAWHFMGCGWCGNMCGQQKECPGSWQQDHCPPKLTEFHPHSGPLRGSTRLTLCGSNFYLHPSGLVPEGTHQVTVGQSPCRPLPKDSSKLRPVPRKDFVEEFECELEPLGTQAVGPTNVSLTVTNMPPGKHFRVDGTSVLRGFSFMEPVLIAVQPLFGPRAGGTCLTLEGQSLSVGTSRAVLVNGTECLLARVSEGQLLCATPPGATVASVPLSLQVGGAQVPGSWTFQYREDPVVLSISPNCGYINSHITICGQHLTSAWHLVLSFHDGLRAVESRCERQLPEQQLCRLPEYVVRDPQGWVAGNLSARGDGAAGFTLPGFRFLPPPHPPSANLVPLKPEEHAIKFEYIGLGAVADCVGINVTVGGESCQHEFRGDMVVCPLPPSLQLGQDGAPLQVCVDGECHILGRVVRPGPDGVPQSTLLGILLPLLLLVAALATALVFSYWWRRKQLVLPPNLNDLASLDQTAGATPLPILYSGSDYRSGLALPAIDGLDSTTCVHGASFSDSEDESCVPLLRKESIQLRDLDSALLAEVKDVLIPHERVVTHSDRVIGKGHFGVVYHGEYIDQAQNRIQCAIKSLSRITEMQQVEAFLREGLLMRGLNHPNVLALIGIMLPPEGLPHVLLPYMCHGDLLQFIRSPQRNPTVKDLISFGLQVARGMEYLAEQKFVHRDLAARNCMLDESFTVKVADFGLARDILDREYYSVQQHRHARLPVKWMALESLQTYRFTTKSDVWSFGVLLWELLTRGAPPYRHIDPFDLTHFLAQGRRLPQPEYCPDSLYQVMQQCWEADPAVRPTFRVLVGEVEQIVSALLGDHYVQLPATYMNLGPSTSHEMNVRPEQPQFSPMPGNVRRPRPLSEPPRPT

Row | SMILES | IC50 (RON) [nM] | IC50 (cMET) [nM]
1 | CCc1c(C(=O)Nc2ccc(Oc3ccnc(N)c3Cl)c(F)c2)cnn1-c1cncnc1 [Example 1, N-(4-((2-amino-3-chloropyridin-4-yl)oxy)-3-fluorophenyl)-5-ethyl-1-(pyrimidin-5-yl)-1H-pyrazole-4-carboxamide] | 50 to 500 | 500 to 5000
2 | Nc1nccc(Oc2ccc(NC(=O)c3cnn(-c4ccccn4)c3C(F)(F)F)cc2F)c1Cl [Example 2, N-(4-((2-amino-3-chloropyridin-4-yl)oxy)-3-fluorophenyl)-1-(pyridin-2-yl)-5-(trifluoromethyl)-1H-pyrazole-4-carboxamide] | < 50 | 500 to 5000
3 | Nc1nccc(Oc2ccc(NC(=O)c3cnn(-c4nc(-c5ccccc5)cs4)c3C(F)(F)F)cc2F)c1Cl [Example 3, N-(4-((2-amino-3-chloropyridin-4-yl)oxy)-3-fluorophenyl)-1-(4-phenylthiazol-2-yl)-5-(trifluoromethyl)-1H-pyrazole-4-carboxamide] | > 5000 | > 5000
4 | CCc1c(C(=O)Nc2ccc(Oc3ccnc(N)c3Cl)c(F)c2)cnn1-c1ccncc1 [Example 4, N-(4-((2-amino-3-chloropyridin-4-yl)oxy)-3-fluorophenyl)-5-ethyl-1-(pyridin-4-yl)-1H-pyrazole-4-carboxamide] | 500 to 5000 | > 5000
5 | CCc1c(C(=O)Nc2ccc(Oc3ccnc(N)c3Cl)c(F)c2)cnn1-c1cccnc1 [Example 5, N-(4-((2-amino-3-chloropyridin-4-yl)oxy)-3-fluorophenyl)-5-ethyl-1-(pyridin-3-yl)-1H-pyrazole-4-carboxamide] | 50 to 500 | 500 to 5000
6 | Nc1nccc(Oc2ccc(NC(=O)c3cnn(-c4cncnc4)c3C(F)(F)F)cc2F)c1Cl [Example 6, N-(4-((2-amino-3-chloropyridin-4-yl)oxy)-3-fluorophenyl)-1-(pyrimidin-5-yl)-5-(trifluoromethyl)-1H-pyrazole-4-carboxamide] | 50 to 500 | > 5000
7 | Cc1c(C(=O)Nc2ccc(Oc3ccnc(N)c3Cl)c(F)c2)cnn1-c1cncnc1 [Example 7, N-(4-((2-amino-3-chloropyridin-4-yl)oxy)-3-fluorophenyl)-5-methyl-1-(pyrimidin-5-yl)-1H-pyrazole-4-carboxamide] | 50 to 500 | > 5000
8 | Nc1nccc(Oc2ccc(NC(=O)c3cnn(-c4ncccc4F)c3C(F)(F)F)cc2F)c1Cl [Example 8, N-(4-((2-amino-3-chloropyridin-4-yl)oxy)-3-fluorophenyl)-1-(3-fluoropyridin-2-yl)-5-(trifluoromethyl)-1H-pyrazole-4-carboxamide] | < 50 | 500 to 5000
9 | Cc1cccnc1-n1ncc(C(=O)Nc2ccc(Oc3ccnc(N)c3Cl)c(F)c2)c1C(F)(F)F [Example 9, N-(4-((2-amino-3-chloropyridin-4-yl)oxy)-3-fluorophenyl)-1-(3-methylpyridin-2-yl)-5-(trifluoromethyl)-1H-pyrazole-4-carboxamide] | < 50 | 500 to 5000
10 | Nc1nccc(Oc2ccc(NC(=O)c3cnn(-c4ncccc4Cl)c3C(F)(F)F)cc2F)c1Cl [Example 10, N-(4-((2-amino-3-chloropyridin-4-yl)oxy)-3-fluorophenyl)-1-(3-chloropyridin-2-yl)-5-(trifluoromethyl)-1H-pyrazole-4-carboxamide] | < 50 | 500 to 5000
11 | Nc1nccc(Oc2ccc(NC(=O)c3cnn(-c4ncccc4C(F)(F)F)c3C(F)(F)F)cc2F)c1Cl [Example 11, N-(4-((2-amino-3-chloropyridin-4-yl)oxy)-3-fluorophenyl)-5-(trifluoromethyl)-1-(3-(trifluoromethyl)pyridin-2-yl)-1H-pyrazole-4-carboxamide] | 50 to 500 | 500 to 5000
12 | Cc1ccnc(-n2ncc(C(=O)Nc3ccc(Oc4ccnc(N)c4Cl)c(F)c3)c2C(F)(F)F)c1 [Example 12, N-(4-((2-amino-3-chloropyridin-4-yl)oxy)-3-fluorophenyl)-1-(4-methylpyridin-2-yl)-5-(trifluoromethyl)-1H-pyrazole-4-carboxamide] | 50 to 500 | 500 to 5000
13 | Nc1nccc(Oc2ccc(NC(=O)c3cnn(-c4ccc(F)cn4)c3C(F)(F)F)cc2F)c1Cl [Example 13, N-(4-((2-amino-3-chloropyridin-4-yl)oxy)-3-fluorophenyl)-1-(5-fluoropyridin-2-yl)-5-(trifluoromethyl)-1H-pyrazole-4-carboxamide] | 50 to 500 | > 5000
14 | Nc1nccc(Oc2ccc(NC(=O)c3cnn(-c4cc(Cl)ccn4)c3C(F)(F)F)cc2F)c1Cl [Example 14, N-(4-((2-amino-3-chloropyridin-4-yl)oxy)-3-fluorophenyl)-1-(4-chloropyridin-2-yl)-5-(trifluoromethyl)-1H-pyrazole-4-carboxamide] | 50 to 500 | > 5000
15 | COc1cccnc1-n1ncc(C(=O)Nc2ccc(Oc3ccnc(N)c3Cl)c(F)c2)c1C(F)(F)F [Example 15, N-(4-((2-amino-3-chloropyridin-4-yl)oxy)-3-fluorophenyl)-1-(3-methoxypyridin-2-yl)-5-(trifluoromethyl)-1H-pyrazole-4-carboxamide] | 50 to 500 | 500 to 5000
16 | Cc1ccc(-n2ncc(C(=O)Nc3ccc(Oc4ccnc(N)c4Cl)c(F)c3)c2C(F)(F)F)nc1 [Example 16, N-(4-((2-amino-3-chloropyridin-4-yl)oxy)-3-fluorophenyl)-1-(5-methylpyridin-2-yl)-5-(trifluoromethyl)-1H-pyrazole-4-carboxamide] | 50 to 500 | > 5000
17 | Cc1cccc(-n2ncc(C(=O)Nc3ccc(Oc4ccnc(N)c4Cl)c(F)c3)c2C(F)(F)F)n1 [Example 17, N-(4-((2-amino-3-chloropyridin-4-yl)oxy)-3-fluorophenyl)-1-(6-methylpyridin-2-yl)-5-(trifluoromethyl)-1H-pyrazole-4-carboxamide] | 50 to 500 | 500 to 5000
18 | Nc1nccc(Oc2ccc(NC(=O)c3cnn(-c4cccnc4)c3C(F)(F)F)cc2F)c1Cl [Example 18, N-(4-((2-amino-3-chloropyridin-4-yl)oxy)-3-fluorophenyl)-1-(pyridin-3-yl)-5-(trifluoromethyl)-1H-pyrazole-4-carboxamide] | 50 to 500 | 500 to 5000
19 | Nc1nccc(Oc2ccc(NC(=O)c3cnn(-c4ccncc4)c3C(F)(F)F)cc2F)c1Cl [Example 19, N-(4-((2-amino-3-chloropyridin-4-yl)oxy)-3-fluorophenyl)-1-(pyridin-4-yl)-5-(trifluoromethyl)-1H-pyrazole-4-carboxamide] | 50 to 500 | 500 to 5000
20 | Nc1nccc(Oc2ccc(NC(=O)c3cnn(-c4cccnn4)c3C(F)(F)F)cc2F)c1Cl [Example 20, N-(4-((2-amino-3-chloropyridin-4-yl)oxy)-3-fluorophenyl)-1-(pyridazin-3-yl)-5-(trifluoromethyl)-1H-pyrazole-4-carboxamide] | < 50 | 500 to 5000
